Source: patent publication US11591331B2, “PARP1 inhibitors and uses thereof” (Xinthera, Inc., priority 2021, dated 2023)

Columns and labels:
Experiment in all cases: Cell growth inhibition assay (CellTiter-Glo cell viability, 7 days)
Type in all cases: cell-based
[1] = system: DLD-1 BRCA2(−/−); conditions: Homo sapiens, 168 h, DLD-1 BRCA2(-/-) cells
[2] = system: DLD-1 parental; conditions: Homo sapiens, 168 h, DLD-1 parental cells
Description: Example A: Cell Growth Inhibition Assay
The objective of this study is to evaluate the effect of invention compounds on cell proliferation through the cell viability assay in DLD-1 BRCA2(−/−) and parental isogenic pair and MDA-MB-436 (mutated BRCA1) cell lines. The CellTiter-Glo (CTG) based cell viability assay is designed to determine the number of viable cells in the culture because of compound effect, by quantifying ATP, which indicates the presence of metabolically active cells.
DLD-1 BRCA2(−/−) and parental isogenic pair were cultured in RPMI 1640 supplemented with 10% fetal bovine serum (FBS), and MDA-MB-436 cells were cultured in DMEM supplemented with 10% FBS. Both are culture at 37° C. with 5% CO2. Invention compounds were distributed to the 384 well plate (Corning, 3764) using Echo acoustic liquid handler to form a 1:3 serially diluted final concentration with top dose of 10 or 30 μM. The cells were seeded into the plate in the density of 50 cells/well (DLD-1 parental), 200 cells/well (DLD-1 BRCA2−/−), or 500 cells/well (MDA-MB-436). After a short spun, the cells were cultured in a well moisturized incubator at 37° C. with 5% CO2 for 7 days without disturbance. The cell viability was measured by CellTiter Glo 2.0 assay kit (Promega, G9243), and growth inhibition rate was calculated and plotted against final compound concentration, and the data were fitted in Xfit to generate IC50.

[3] = system: MDA-MB-436 (mutated BRCA1) cell lines; conditions: Homo sapiens, 168 h, MDA-MB-436 cells

EC50 [1] [nM] | EC50 [3] [nM] | SMILES | EC50 [2] [nM]
4.1 | 1 | CCc1cc2ncc(CN3CCN(c4ccc(C(=O)NC)nc4)[C@@H](C)C3)cc2[nH]c1=O (racemic) [Example 27] | 32000
22 | – | CCc1cc2ncc(CN3CCN(c4ccc(C(=O)NC)nc4)C[C@H]3C)cc2[nH]c1=O (racemic) [Example 161] | > 10000
3.2 | 1.5 | CCc1cc2ncc(CN3CCN(c4ccc(C(=O)NC)nc4)[C@H]4C[C@H]43)cc2[nH]c1=O (single isomer, unassigned) [Example 3B] | 29000
3.5 | 2.5 | CCc1cc2ccc(CN3CCN(c4ccc(C(=O)NC)c(=O)n4C)CC3)cc2[nH]c1=O [Example 89] | –
13 | 13 | CCc1nc2ncc(CN3CCN(c4ccc(C(=O)NC)nc4)CC3)cc2[nH]c1=O [Example 91] | –
11 | 10 | CCc1cc2ncc(CN3CCN(c4ccc(-n5cccn5)nc4)CC3)cc2[nH]c1=O [Example 92] | –
1.7 | 0.84 | [2H]C([2H])([2H])NC(=O)c1ccc(N2CCN(Cc3cnc4cc(CC)c(=O)[nH]c4c3)C[C@H]2C)c(C#N)n1 [Example 93] | –
39 | 41 | CNC(=O)c1ccc2c(c1F)OC[C@@H]1CN(Cc3cnc4cc(C)c(=O)[nH]c4c3)CCN21 [Example 94] | –
3.9 | 2.9 | CNC(=O)c1ccc(N2CCN(Cc3cnc4c(C)c(C)c(=O)[nH]c4c3)CC2)cn1 [Example 95] | –
1.5 | 0.71 | CNC(=O)c1ccc(N2CCN(Cc3cnc4cc(C5CC5)c(=O)[nH]c4c3)CC2)c(C#N)n1 [Example 97] | –
3.9 | 2.6 | CNC(=O)c1ncc(N2CCN(Cc3cnc4cc(C5CC5)c(=O)[nH]c4c3)CC2)cc1F [Example 100] | –
17 | 9.8 | CCc1cc2ncc(CN3CCN(c4ccc(NC(=O)N5CCOCC5)nc4)CC3)cc2[nH]c1=O [Example 101] | –
13 | 18 | CCc1cc2ncc(CN3CCN(c4ccc(NC(=O)OC5COC5)nc4)CC3)cc2[nH]c1=O [Example 102] | –
1.4 | 1.4 | CNC(=O)c1ccc(N2CCN(Cc3cnc4cc(C5CCC5)c(=O)[nH]c4c3)CC2)cn1 [Example 104] | –
3.2 | 1.8 | CCc1cc2ncc(CN3CCN(c4cnc(C(=O)NC5CC5)c(F)c4)CC3)cc2[nH]c1=O [Example 105] | –
5.7 | 6.6 | CCc1cc2ncc(CN3CCN(c4ccncn4)CC3)cc2[nH]c1=O [Example 106] | –
31 | 14 | Cc1cc2ncc(CN3CCN(c4cnc(C(=O)NC5CC5)c(F)c4)CC3)cc2[nH]c1=O [Example 108] | –
1.9 | 1.3 | [2H]C([2H])(c1cnc2cc(C3CC3)c(=O)[nH]c2c1)N1CCN(c2ccc(C(=O)NC)nc2)CC1 [Example 115] | –
2 | 1.2 | [2H]C([2H])([2H])NC(=O)c1ccc(N2CCN(C([2H])([2H])c3cnc4cc(C5CC5)c(=O)[nH]c4c3)CC2)cn1 [Example 116] | –
2.1 | 1.2 | [2H]C([2H])(c1cnc2cc(C3CC3)c(=O)[nH]c2c1)N1CCN(c2ccc(C(=O)NC3CC3)nc2)CC1 [Example 117] | –
1.3 | 0.74 | CCc1cc2ncc(CN3CCN(c4ccncc4C#N)CC3)cc2[nH]c1=O [Example 118] | –
1.8 | 0.99 | [2H]C([2H])([2H])C([2H])([2H])NC(=O)c1ccc(N2CCN(Cc3cnc4cc(C5CC5)c(=O)[nH]c4c3)CC2)cn1 [Example 119] | –
2.7 | 1.7 | CCc1cc2ncc(CN3CCN(c4ccnnc4C#N)CC3)cc2[nH]c1=O [Example 120] | –
15 | 5.6 | [2H]C([2H])([2H])C([2H])([2H])NC(=O)c1ccc(N2CCN(Cc3cnc4cc(C5CC5)c(=O)[nH]c4c3)CC2)n(C)c1=O [Example 123] | –
4.8 | 4.2 | CCc1cc2ncc(CN3CCN(c4cccnc4C#N)CC3)cc2[nH]c1=O [Example 128, 3-{4-[(7-ethyl-6-oxo-5H-1,5-naphthyridin-3-yl)methyl]piperazin-1-yl}pyridine-2-carbonitrile] | –
15 | 7 | N#Cc1ncccc1N1CCN(Cc2cnc3cc(C4CC4)c(=O)[nH]c3c2)CC1 [Example 129] | –

EC50 [1] [nM] | EC50 [3] [nM] | SMILES | EC50 [2] [nM]
3.3 | 2.3 | CCc1cc2ncc(CN3CCN(c4ccccc4C#N)CC3)cc2[nH]c1=O [Example 130] | –
11 | 6.2 | Cc1cc2ncc(CN3CCN(c4cccnc4C#N)CC3)cc2[nH]c1=O [Example 131] | –
6.7 | 4.4 | CCc1cc2ncc(CN3CCN(c4cc(F)ccc4C#N)CC3)cc2[nH]c1=O [Example 132] | –
1 | 0.87 | CNC(=O)c1ccc(N2CCN(Cc3cnc4c(C)c(C(F)F)c(=O)[nH]c4c3)CC2)cn1 [Example 133] | –
2.4 | 1.4 | CCc1cc2ncc(CN3CCN(c4ccc(C(=O)NC5CC5)c(F)c4)CC3)cc2[nH]c1=O [Example 134] | –
15 | 24 | C#Cc1cc2ncc(CN3CCN(c4ccc(C(=O)NC)nc4)CC3)cc2[nH]c1=O [Example 135] | –
2 | 0.93 | Cc1cnc(N2CCN(Cc3cnc4cc(C5CC5)c(=O)[nH]c4c3)CC2)n1C [Example 136] | –
2.1 | 1.3 | CCNC(=O)c1ccc(N2CCN(Cc3cnc4cc(C5CC5)c(=O)[nH]c4c3)CC2)cn1 [Example 137] | –
2.7 | 2.1 | CNC(=O)c1ccc(N2CCN(Cc3cnc4cc(Cl)c(=O)[nH]c4c3)CC2)cn1 [Example 138, 5-{4-[(7-chloro-6-oxo-5H-1,5-naphthyridin-3-yl)methyl]piperazin-1-yl}-N-methylpyridine-2-carboxamide] | –
1.5 | 0.77 | CCc1cc2ncc(CN3CCN(c4ccc(C(=O)NC5CC5)nc4C#N)CC3)cc2[nH]c1=O [Example 139] | –
4.3 | 5.8 | CNC(=O)c1ccc(N2CCN(Cc3cnc4cc(C5CC(F)(F)C5)c(=O)[nH]c4c3)CC2)cn1 [Example 140] | –
6.4 | 4.1 | CCc1cc2nc(C#N)c(CN3CCN(c4ccc(C(=O)NC)nc4)CC3)cc2[nH]c1=O [Example 141] | –
8.7 | 4 | O=C(NC1CC1)c1ccc(N2CCN(Cc3cnc4c(c3)[nH]c(=O)c3ccoc34)CC2)cn1 [Example 142] | –
4.1 | 2 | CCc1cc2c(OC)nc(CN3CCN(c4ccc(C(=O)NC)nc4)CC3)cc2[nH]c1=O [Example 144] | –
1.9 | 1.1 | CCc1cc2ncc(CN3CCN(c4ccc(C(=O)NC)c(F)c4C#N)CC3)cc2[nH]c1=O [Example 145] | –
2.9 | 1.3 | O=C(NC1CC1)c1ccc(N2CCN(Cc3cnc4cc(Cl)c(=O)[nH]c4c3)CC2)cn1 [Example 147] | –
2 | 1.5 | CNC(=O)c1ccc(N2CCN(Cc3cnc4c(C)c(Cl)c(=O)[nH]c4c3)CC2)cn1 [Example 148, 5-{4-[(7-chloro-8-methyl-6-oxo-5H-1,5-naphthyridin-3-yl)methyl]piperazin-1-yl}-N-methylpyridine-2-carboxamide] | –
17 | 9.4 | CNC(=O)c1ccc(N2CCN(Cc3cnc4cc(N5CCC5)c(=O)[nH]c4c3)CC2)cn1 [Example 149] | –
18 | 9 | CCc1cc2ccc(CN3CCN(c4ccc(C(=O)NC)nc4F)CC3)nc2[nH]c1=O [Example 150] | –
16 | 28 | CNC(=O)c1ccc(N2CCN(Cc3cnc4c(C(F)F)c(C)c(=O)[nH]c4c3)CC2)cn1 [Example 151] | –
1.1 | 0.51 | O=C(NC1CC1)c1ccc(N2CCN(Cc3cnc4cc(Cl)c(=O)[nH]c4c3)CC2)c(F)n1 [Example 152] | –
3 | 1.6 | Cc1c(Cl)c(=O)[nH]c2cc(CN3CCN(c4ccc(C(=O)NC5CC5)nc4)CC3)cnc12 [Example 154] | –
0.68 | 0.39 | CNC(=O)c1ccc(N2CCN(Cc3cnc4c(C)c(Cl)c(=O)[nH]c4c3)CC2)c(F)n1 [Example 156] | –
61 | 41 | N#CC12CC(N3CCN(Cc4cnc5cc(Cl)c(=O)[nH]c5c4)CC3)(C1)C2 [Example 157] | –
2.1 | 1 | O=C(NC1CC1)c1ccc(N2CCN(Cc3cnc4cc(C5CC5)c(=O)[nH]c4c3)CC2)c(F)n1 [Example 158] | –
1.7 | 0.72 | CNC(=O)c1ccc(N2CCN(Cc3cnc4c(Cl)c(Br)c(=O)[nH]c4c3)CC2)cn1 [Example 159] | –

SMILES | EC50 [1] [nM] | EC50 [3] [nM] | EC50 [2] [nM]
CNC(=O)c1ccc(C2=CCN(Cc3cnc4cc(Cl)c(=O)[nH]c4c3)CC2)c(F)n1 [Example 153] | 0.95 | 0.74 | –
CNC(=O)c1ccc(C2=CCN(Cc3cnc4cc(Cl)c(=O)[nH]c4c3)CC2)cn1 [Example 160] | 2.6 | 2.1 | –
